The record followed here is patent US10913780B2, “Conjugates, their compositions, their uses, and their methods of making” (THE ADMINISTRATORS OF THE TULANE EDUCATIONAL FUND, priority 2016, dated 2021).

Bridge positions count the residues as written; N and C are the ends. Square brackets hold non-standard residues; d marks the D form. * marks the point of attachment. 4‑mercaptophenylacetyl = O=C(Cc1ccc(S)cc1)*; Nle = CCCC[C@H](N)C(=O)O

The subject of this assay is activated human T-cells (Jurkat). The assay is described as follows: Inhibition of IL-2 release from a culture of activated human T-cells (Jurkat). The format is cell-based. The conditions noted are these: for inhibition of IL-2 release: Jurkat cells stimulated with lectin and Phorbol, overnight, potency compared with tacrolimus (FK-506); for effect on IL-2 release in the presence of increasing amounts of lanreotide: large excess of the somatostatin type 2 agonist lanreotide. The procedure:
Cells were harvested, washed twice, and re-suspended in serum-free medium at a cell density of 4×10^6 cells/ml. Fifty μl of cell suspension was then added to each well of 96-well plates followed by 50 μl of tested compounds at different concentration (4×) for 1 hour at 37° C. The cells were stimulated to release IL-2 by adding 50 μl of lectin in PBS (10 μg/ml) and 50 μl of Phorbol in DMSO (100 ng/ml) to each well and continuing overnight incubation. The plates were centrifuged for 10 min at 1500 rpm and supernatants harvested for IL-2 assay using kits purchased from R&D Systems (Minneapolis, Minn.) and following the experimental directions provided.

Consider `C=CC[C@@H]1/C=C(\C)C[C@H](C)C[C@H](OC)[C@H]2O[C@@](O)(C(=O)C(=O)N3CCCC[C@H]3C(=O)O[C@H](/C(C)=C/[C@@H]3CCC(S)[C@H](OC)C3)[C@H](C)[C@@H](O)CC1=O)[C@H](C)C[C@@H]2OC` (stereo partly drawn) [tacrolimus-32-thiol, Tacrolimus-32-Thiol], for which the “inhibition of IL-2 release” value by setting is: (listed as 32-thiol analog of tacrolimus) “virtually equipotent with the parent compound”; (listed as tacrolimus-32-SH) “equivalent potencies”.

Take “Example 10: Tacrolimus-32-thiol linked by a disulfide bond (4-mercaptophenylacetic acid) to the cyclized somatostatin analog peptide of Example 9 ({tacrolimus‑32‑thiol (disulfide)-4‑mercaptophenylacetyl}-[dS]S[dS]S[dS][Nle][dY][dS]CF[dW]KTCT-NH2; disulfide 9-14)”: the “inhibition of IL-2 release” value is “virtually equipotent” and the “effect on IL-2 release in the presence of increasing amounts of lanreotide” value is reported as “blocked the IL-2 release inhibiting capability”. Besides, the “effect on IL-2 release in the presence of increasing amounts of lanreotide” value (listed as tacrolimus-32-SH-somatostatin) is recorded as “Blockade of biological activity”.

For the compound `C=CC[C@@H]1/C=C(\C)C[C@H](C)C[C@H](OC)[C@H]2O[C@@](O)(C(=O)C(=O)N3CCCC[C@H]3C(=O)O[C@H](/C(C)=C/[C@@H]3CC[C@@H](O)[C@H](OC)C3)[C@H](C)[C@@H](O)CC1=O)[C@H](C)C[C@@H]2OC` [Tacrolimus, reference compound], the “inhibition of IL-2 release” value is listed as “potent inhibitor”.
